The test deals with Passive cutaneous anaphylaxis. Briefly: Passive cutaneous anaphylaxis (PCA) in rats. As to conditions: Rattus norvegicus, read-out: ED50 (dose of drug giving 50% inhibition), dosed immediately prior to challenge, male rats, ovalbumen antigen. It is filed as in vivo. As for the experimental part: Passive cutaneous anaphylaxis (PCA) in rats
The following compounds were tested for their physiological activity in the test: methyl 8-chloro-4H-imidazo-[2,1-c][1,4]-benzoxazine-2-carboxylate (compound A), methyl 8-methyl-4H-imidazo-[2,1-c][1,4]-benzoxazine-2-carboxylate (compound B), 8-chloro-4H-imidazo-[2,1-c][1,4]-benzoxazine-2-carboxylic acid (compound C), 7-methyl-4H-imidazo-[2,1-c][1,4]-benzoxazine-2-carboxylic acid (compound D), 8-chloro-7-methyl-4H-imidazo-[2,1-c][1,4]-benzoxazine-2-carboxylic acid (compound E), 6-methoxy-4H-imidazo-[2,1-c][1,4]-benzoxazine-2-carboxylic acid (compound F) and 8-methyl-4H-imidazo-[2,1-c][1,4]-benzoxazine-2-carboxylic acid (compound G).
Cutaneous anaphylaxis was induced in rats by intradermal (ID) sensitization with antiserum followed three days later by systemic challenge with antigen. Evans blue dye injected with the antigen is used as a marker to assess the severity of the local response. Anti-allergic drugs inhibit this reaction. This method has been described by OVARY (1962) "Passive Cutaneous Anaphylaxis in Allergology" Page 358-367 Ed. Brown: Pergamon Press. Animals: -male rats weighing 180-220 grams are used in groups of seven.
Preparation of Antigen for Sensitization (Alum precipitated ovalbumen)
1. Wash 120 grams of Al(OH)3 gel in 140 ml of saline (use of a macerater facilitates mixing).
2. Centrifuge at 3,000 rpm for about 10 minutes.
3. Resuspend the precipitate with 300 ml of albumen egg powder (1.3 mg/ml) in saline and allow to stand for 30 minutes.
4. Centrifuge at 3,000 rpm for 10 minutes.
5. Weigh the wet precipitate and to each gram weight add 1 ml of saline. Store in refrigerator (Quantity sufficient for 60 rats for a 3 day sensitization program).
Preparation of Antiserum (anti-ovalbumen)
1 ml of the alum precipitated ovalbumen was injected subcutaneously into rats weighing 180-200 grams on days 0,2,4. The rats were bled on day 14 either by cardiac puncture or via the dorsal abdominal aorta. Equal quantities of serum from each animal were pooled and thoroughly mixed and 2 ml aliquots were stored at -20° C. in plastic tubes.
The antiserum for sensitization was diluted so that an ID injection of 0.1 ml into control animals would give an average score of a single spot of between 2.0-3.5 using 5 point scoring system.
(A) SENSITIZATION: The rats were anaesthetized Nembutal (40-60 mg/kg i.p) and were then sensitized by four ID injections (0.1 ml each) on their shaved backs. The animals were then left for a period of three days to develop sensitization.
(B) […]: The sensitized rats were dosed orally or intraveneously with the drug immediately prior to intraveneous challenge via the superficial penile vein with 1 ml of an antigen/Evans blue mixture (1 mg albumen egg powder in 0.5 ml saline plus 0.5 ml of 1% Evans blue). The injections were speeded up by using an automatic 1 ml self-filling glass syringe. The "challenged" rats were killed after 30 minutes, (usually pithed) and their skin on the dorsal surface was removed. The degree and area of blueing, proportional to the anaphylactic reaction was assessed on a five point scoring system.
1. Total scores for sites 1,2,3 and 4=X
2. Mean value of X for each group=X
X c=X for control group [formula] 5.
ED50 values for the compounds tested in the passive cutaneous anaphylaxis screen (in rats) are as follows: […]

From patent US4207318A, “Novel imidazobenzoxazines” (Roussel Uclaf, priority 1977, dated 1980) come the findings set out here.

Where two headings read alike, the source gives them in different places.

Broadly, the ED50 is the midpoint of the dose-response relation.

For the compound `COC(=O)c1cn2c(n1)COc1ccc(C)cc1-2` [B, methyl 8-methyl-4H-imidazo-[2,1-c][1,4]-benzoxazine-2-carboxylate], where the note is “P.O. (oral)”, the ED50 was 1.46 mg/kg.

`O=C(O)c1cn2c(n1)COc1ccc(Cl)cc1-2` [C, 8-chloro-4H-imidazo-[2,1-c][1,4]-benzoxazine-2-carboxylic acid]: the ED50 (I.V. (intravenous)) stood at 0.42 mg/kg and the ED50 (P.O. (oral)) is 0.13 mg/kg.

For `COC(=O)c1cn2c(n1)COc1ccc(Cl)cc1-2` [A, methyl 8-chloro-4H-imidazo-[2,1-c][1,4]-benzoxazine-2-carboxylate], where the note is “P.O. (oral)”, the ED50 is 2.79 mg/kg.

For the compound `Cc1ccc2c(c1)OCc1nc(C(=O)O)cn1-2` [D, 7-methyl-4H-imidazo-[2,1-c][1,4]-benzoxazine-2-carboxylic acid], the ED50 (I.V. (intravenous)) turned out to be 0.39 mg/kg and the ED50 (P.O. (oral)) amounted to 4 mg/kg.

For the compound `Cc1ccc2c(c1)-n1cc(C(=O)O)nc1CO2` [G, 8-methyl-4H-imidazo-[2,1-c][1,4]-benzoxazine-2-carboxylic acid], the ED50 reads like this: (I.V. (intravenous)) 0.35 mg/kg; (P.O. (oral)) 0.37 mg/kg.

Take `COc1cccc2c1OCc1nc(C(=O)O)cn1-2` [F, 6-methoxy-4H-imidazo-[2,1-c][1,4]-benzoxazine-2-carboxylic acid]: the ED50 (I.V. (intravenous)) stood at 3.27 mg/kg.

In the case of `Cc1cc2c(cc1Cl)-n1cc(C(=O)O)nc1CO2` [E, 8-chloro-7-methyl-4H-imidazo-[2,1-c][1,4]-benzoxazine-2-carboxylic acid], the ED50 (I.V. (intravenous)) stood at 0.75 mg/kg.
